Source: US20190359609A1, “BICYCLIC OGA INHIBITOR COMPOUNDS” (Janssen Pharmaceutica NV, priority 2016, published 2019)

Target: T1, recombinant human Meningioma Expressed Antigen 5 (MGEA5), also referred to as O-GlcNAcase (OGA) (Homo sapiens, UniProt O60502)
T1 construct: Full length OGA enzyme was purchased at OriGene (cat # TP322411); purchased OriGene TP322411
T1 sequence (O60502 1-916): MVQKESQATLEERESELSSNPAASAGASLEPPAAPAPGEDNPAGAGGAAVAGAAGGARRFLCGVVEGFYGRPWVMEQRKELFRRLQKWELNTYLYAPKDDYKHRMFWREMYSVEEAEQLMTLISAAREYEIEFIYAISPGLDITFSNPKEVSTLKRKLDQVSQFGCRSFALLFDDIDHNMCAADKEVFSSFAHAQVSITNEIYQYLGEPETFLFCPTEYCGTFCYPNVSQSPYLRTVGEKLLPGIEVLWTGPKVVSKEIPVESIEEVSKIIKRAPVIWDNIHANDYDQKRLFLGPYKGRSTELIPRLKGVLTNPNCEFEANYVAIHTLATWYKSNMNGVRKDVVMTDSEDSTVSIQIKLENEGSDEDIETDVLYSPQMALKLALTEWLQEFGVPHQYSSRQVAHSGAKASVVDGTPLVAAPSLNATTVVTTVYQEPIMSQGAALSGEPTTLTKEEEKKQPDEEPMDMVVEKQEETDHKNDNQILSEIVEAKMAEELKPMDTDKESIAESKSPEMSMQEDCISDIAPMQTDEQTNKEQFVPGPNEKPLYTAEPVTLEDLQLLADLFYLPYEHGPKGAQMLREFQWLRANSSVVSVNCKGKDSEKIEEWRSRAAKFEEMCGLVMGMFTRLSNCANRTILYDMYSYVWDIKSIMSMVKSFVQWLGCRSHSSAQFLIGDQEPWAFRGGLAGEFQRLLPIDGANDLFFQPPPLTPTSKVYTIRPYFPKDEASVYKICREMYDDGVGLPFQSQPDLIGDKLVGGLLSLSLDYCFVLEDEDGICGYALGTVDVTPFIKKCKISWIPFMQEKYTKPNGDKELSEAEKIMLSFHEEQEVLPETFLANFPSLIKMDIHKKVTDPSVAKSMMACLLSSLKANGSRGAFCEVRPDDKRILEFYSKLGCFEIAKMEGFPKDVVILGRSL
Assay: OGA biochemical assay: inhibition of FM-GlcNAc hydrolysis, fluorescence (protocol A 10 nM OGA, 1 h; protocol B 2 nM OGA, 6 h)
Details: Enzymatic protocol A (10 nM OGA, 1 h)
Excerpt: The assay is based on the inhibition of the hydrolysis of fluorescein mono-B-D-N-Acetyl-Glucosamine (FM-GlcNAc) (Mariappa et al. 2015, Biochem J 470:255) by the recombinant human Meningioma Expressed Antigen 5 (MGEA5), also referred to as 0-GlcNAcase (OGA). The hydrolysis FM-GlcNAc (Marker Gene technologies, cat # M1485) results in the formation of β-D-N-glucosamineacetate and fluorescein. The fluorescence of the latter can be measured at excitation wavelength 485 nm and emission wavelength 538 nm. An increase in enzyme activity results in an increase in fluorescence signal. Full length OGA enzyme was purchased at OriGene (cat # TP322411). The enzyme was stored in 25 mM Tris.HCl, pH 7.3, 100 mM glycine, 10% glycerol at −20° C. Thiamet G and GlcNAcStatin were tested as reference compounds (Yuzwa et al. 2008 Nature Chemical Biology 4:483; Yuzwa et al. 2012 Nature Chemical Biology 8:393). The assay was performed in 200 mM Citrate/phosphate buffer supplemented with 0.005% Tween-20. 35.6 g Na2HPO4 2 H2O (Sigma, # C0759) were dissolved in 1 L water to obtain a 200 mM solution. 19.2 g citric acid (Merck, #1.06580) was dissolved in 1 L water to obtain a 100 mM solution. pH of the sodiumphosphate solution was adjusted with the citric acid solution to 7.2. The buffer to stop the reaction consists of a 500 mM Carbonate buffer, pH 11.0. 734 mg FM-GlcNAc were dissolved in 5.48 mL DMSO to obtain a 250 mM solution and was stored at −20° C. OGA was used at a 10 nM (protocol A) or 2 nM (protocol B) concentration and FM-GlcNAc at a 100 uM final concentration. Dilutions were prepared in assay buffer.
50 nl of a compound dissolved in DMSO was dispensed on Black Proxiplate™ 384 Plus Assay plates (Perkin Elmer, #6008269) and 3 μl fl-OGA enzyme mix added subsequently. Plates were pre-incubated for 60 min at room temperature and then 2 μl FM-GlcNAc substrate mix added. […] Plates were briefly centrifuged for 1 min at 1000 rpm and incubate at room temperature for 1 h (10 nM OGA, protocol A) or 6 h (2 nM OGA, protocol B). To stop the reaction 5 μl STOP buffer were added and plates centrifuge again 1 min at 1000 rpm. Fluorescence was quantified in the Thermo Scientific Fluoroskan Ascent or the PerkinElmer EnVision with excitation wavelength 485 nm and emission wavelength 538 nm.
For analysis a best-fit curve is fitted by a minimum sum of squares method. From this an IC50 value and Hill coefficient was obtained. High control (no inhibitor) and low control (saturating concentrations of standard inhibitor) were used to define the minimum and maximum values.

Enzymatic Emax (%) | Structure (SMILES)
99 | CC(=O)Nc1ncc(S(=O)(=O)N2CCCC(c3cc4ncccc4[nH]3)C2)s1 (single isomer, unassigned) [Compound 3]

Same assay, conditions: Enzymatic protocol A (10 nM OGA, 1 h); read-out: Enzymatic Emax (%)

Emax [%] | Structure (SMILES)
75.9 | CC(=O)Nc1ncc(S(=O)(=O)N2CCCC(c3nc4ncccc4[nH]3)C2)s1 (stereo not shown) [Compound 1]
99.7 | CC(=O)Nc1ncc(CN2CCCC(c3cc4ncccc4[nH]3)C2)s1 (stereo not shown) [Compound 5]
99.9 | c1cnc2cc(C3CCCN(Cc4ccc5c(c4)OCO5)C3)[nH]c2c1 (stereo not shown) [Compound 38]

Same assay, conditions: Enzymatic protocol A (10 nM OGA, 1 h); read-out: Enzymatic hOGA; pIC50 (converted)

Structure (SMILES) | IC50 [nM]
CC(=O)Nc1ncc(S(=O)(=O)N2CCCC(c3cc4ncccc4[nH]3)C2)s1 (single isomer, unassigned) [Compound 3] | 562
CC(=O)Nc1ncc(S(=O)(=O)N2CCCC(c3nc4ncccc4[nH]3)C2)s1 (stereo not shown) [Compound 1] | 1860

The next lines start with the values.

IC50 [nM] | Structure (SMILES)
25.7 | CC(=O)Nc1ncc(CN2CCCC(c3cc4ncccc4[nH]3)C2)s1 (stereo not shown) [Compound 5]
1740 | c1cnc2cc(C3CCCN(Cc4ccc5c(c4)OCO5)C3)[nH]c2c1 (stereo not shown) [Compound 38]

Same assay, conditions: Enzymatic protocol B (2 nM OGA, 6 h)

Structure (SMILES) | Enzymatic Emax (%)
CC(=O)Nc1ncc(CN2CCCC(c3cc4cnccc4[nH]3)C2)s1 (single isomer, unassigned) [Compound 14] | 96.3
CC(c1ccc2c(c1)OCO2)N1CCCC(c2cc3ncccc3[nH]2)C1 (single isomer, unassigned) [Compound 29] | 73.5
CC(c1ccc2c(c1)OCO2)N1CCCC(c2cc3ncccc3[nH]2)C1 (single isomer, unassigned) [Compound 30] | 75.1
CC(c1ccc2c(c1)OCO2)N1CCCC(c2cc3ncccc3[nH]2)C1 (single isomer, unassigned) [Compound 32] | 89.4
CC(c1ccc2c(c1)OCCO2)N1CCCC(c2cc3ncccc3[nH]2)C1 (single isomer, unassigned) [Compound 35] | 87.7
CC(c1ccc2c(c1)OCCO2)N1CCCC(c2cc3ncccc3[nH]2)C1 (single isomer, unassigned) [Compound 36] | 101.3
CC(c1ccc2c(c1)OCCO2)N1CCCC(c2cc3ncccc3[nH]2)C1 (single isomer, unassigned) [Compound 37] | 96.0

Other lines, results leading:

Enzymatic Emax (%) | Structure (SMILES)
93.2 | Cn1c(C2CCCN(Cc3ccc4nccnc4c3)C2)cc2ncccc21 (single isomer, unassigned) [Compound 42]
46.5 | Cn1c(C2CCCN(Cc3ccc4nccnc4c3)C2)cc2ncccc21 (single isomer, unassigned) [Compound 43]
100 | CC(c1ccc2c(c1)OCO2)N1CCCC(c2cc3ncccc3n2C)C1 (single isomer, unassigned) [Compound 45]
24.2 | CC(c1ccc2c(c1)OCO2)N1CCCC(c2cc3ncccc3n2C)C1 (single isomer, unassigned) [Compound 46]
85.8 | CC(c1ccc2c(c1)OCO2)N1CCCC(c2cc3ncccc3n2C)C1 (single isomer, unassigned) [Compound 47]
31.7 | CC(c1ccc2c(c1)OCO2)N1CCCC(c2cc3ncccc3n2C)C1 (single isomer, unassigned) [Compound 48]

Same assay, conditions: Enzymatic protocol B (2 nM OGA, 6 h); read-out: Enzymatic hOGA; pIC50 (converted)

Structure (SMILES) | IC50 [nM]
CC(=O)Nc1ncc(CN2CCCC(c3cc4cnccc4[nH]3)C2)s1 (single isomer, unassigned) [Compound 14] | 676
CC(c1ccc2c(c1)OCO2)N1CCCC(c2cc3ncccc3[nH]2)C1 (single isomer, unassigned) [Compound 29] | 3720
CC(c1ccc2c(c1)OCO2)N1CCCC(c2cc3ncccc3[nH]2)C1 (single isomer, unassigned) [Compound 30] | 4070
CC(c1ccc2c(c1)OCO2)N1CCCC(c2cc3ncccc3[nH]2)C1 (single isomer, unassigned) [Compound 32] | 1780
CC(c1ccc2c(c1)OCCO2)N1CCCC(c2cc3ncccc3[nH]2)C1 (single isomer, unassigned) [Compound 35] | 2450
CC(c1ccc2c(c1)OCCO2)N1CCCC(c2cc3ncccc3[nH]2)C1 (single isomer, unassigned) [Compound 36] | 11
CC(c1ccc2c(c1)OCCO2)N1CCCC(c2cc3ncccc3[nH]2)C1 (single isomer, unassigned) [Compound 37] | 955

Continued, values first:

IC50 [nM] | Structure (SMILES)
776 | Cn1c(C2CCCN(Cc3ccc4nccnc4c3)C2)cc2ncccc21 (single isomer, unassigned) [Compound 42]
> 10000 | Cn1c(C2CCCN(Cc3ccc4nccnc4c3)C2)cc2ncccc21 (single isomer, unassigned) [Compound 43]
27.5 | CC(c1ccc2c(c1)OCO2)N1CCCC(c2cc3ncccc3n2C)C1 (single isomer, unassigned) [Compound 45]
> 10000 | CC(c1ccc2c(c1)OCO2)N1CCCC(c2cc3ncccc3n2C)C1 (single isomer, unassigned) [Compound 46]
1550 | CC(c1ccc2c(c1)OCO2)N1CCCC(c2cc3ncccc3n2C)C1 (single isomer, unassigned) [Compound 47]
> 10000 | CC(c1ccc2c(c1)OCO2)N1CCCC(c2cc3ncccc3n2C)C1 (single isomer, unassigned) [Compound 48]

Same assay, conditions: comparative table; protocol not given; read-out: Emax (OGA inhibitory activity, comparison with 1,4-disubstituted piperidine comparator)

Emax [%] | Structure (SMILES)
99.7 | CC(=O)Nc1ncc(CN2CCCC(c3cc4ncccc4[nH]3)C2)s1 (stereo not shown) [Compound 5]

Same assay, conditions: comparative table; protocol not given; read-out: pIC50 (OGA inhibitory activity, comparison with 1,4-disubstituted piperidine comparator) (converted)

IC50 [nM] | Structure (SMILES)
25.7 | CC(=O)Nc1ncc(CN2CCCC(c3cc4ncccc4[nH]3)C2)s1 (stereo not shown) [Compound 5]

Same assay, conditions: greater than the corresponding 1,4-disubstituted piperidine compound (comparator)

OGA inhibitory activity compared with comparator | Structure (SMILES)
~1 order of magnitude | CC(=O)Nc1ncc(CN2CCCC(c3cc4ncccc4[nH]3)C2)s1 (stereo not shown) [Compound 5]
